This note sets out measurements from US7273845B2, “Polymeric prodrugs of vancomycin” (priority 2002, dated 2007).

The nature of series [1]: Circulatory pharmacokinetics after single intravenous dose in rats. The settings on record: for Vss: 50 mg/kg. As for the experimental part:
PEG-vancomycin conjugates containing a 50 mg/kg vancomycin equivalent dose and 50 mg/kg native vancomycin (1) were injected as a single intravenous dose into the tail vein of conscious rats at a rate of 0.5 ml/min [˜2.5 min]. […] A 250 μL bled was done on rats sedated with 30% O2/70% CO2 via the retro-orbital plexus into EDTA containing vials. Blood was immediately processed for plasma and frozen on dry ice. Plasma samples were stored at −80° C. until analyzed. The plasma samples were analyzed by a fluorescence polarization immunoassay using an Abbott Laboratories TDx analyzer within two hours of thawing. A single compartment model using WinNonlin™ software was used to determine the-plasma pharmacokinetic parameters.

Another series has as its system S. aureus (Smith). The series is described as follows: Sustained anti-infective protection, compound given before LD90-100 S. aureus (Smith) challenge, survival. It counts as in vivo, ICR Swiss mice. As for the experimental part: A second study was also performed to examine the sustained anti-infective protection of PEG-vancomycin conjugate 22. ICR Swiss mice were administered with either 100 mg/kg vancomycin equivalents of 22, 100 mg/kg vancomycin, or saline in two equally split doses 1½ hours apart. Ten mice per treatment group were used.

Series [2] has as its system Staphylococcus aureus (Smith). The series is described as follows: LD90-100 examination, compound given after S. aureus (Smith) challenge, survival. It counts as in vivo, ICR Swiss mice. The settings on record: 100 mg/kg vancomycin equivalents in two equal split doses 1 and 2.5 h following LD90-100 S. aureus (Smith) inoculation; survival after 1 week. As for the experimental part:
Studies examining the in vivo anti-infective potential of PEG-vancomycin conjugates in ICR Swiss mice were performed. […] As controls, S. aureus (Smith) challenged mice were administered either saline or 100 mg/kg vancomycingiven in equal split doses. Ten mice were used per compound tested.

The subject of another series is E. faecalis (29212). The series is described as follows: Minimum Inhibitory Concentration (MIC), E. faecalis (29212). Conditions: vancomycin equivalents. It counts as cell-based.
The next series deals with E.coli (25922). The experiment in a line: Minimum Inhibitory Concentration (MIC), E.coli (25922). The series is classed as cell-based. Conditions: vancomycin equivalents.
For another series, the system named is S. aureus (6538P). The series is described as follows: Minimum Inhibitory Concentration (MIC), S. aureus (6538P). It counts as cell-based. The settings on record: vancomycin equivalents.
The next series has as its system S. aureus (29214). The experiment in a line: Minimum Inhibitory Concentration (MIC), S. aureus (29214). It counts as cell-based. Conditions: vancomycin equivalents.
Where [3] appears, read: 50 mg/kg vancomycin equivalents i.v.
Where [4] appears, read: intravenous bolus 50 mg/kg vancomycin equivalents, plasma.

vancomycin [Compound 1]: in series [1] (setting [3]), the Cmax was 162 µg/mL, the “area under the curve (AUC)” value was found to be 78800 ng·h/mL, the “circulatory half-life (t1/2)” value turned out to be 20.4 min and the “clearance (CL)” value is 10.7 mL/min/kg. For the same substance, in series [1] (setting [4]), the area under the curve (AUC) was found to be 78800 ± 10800 ng·h/mL, the CL is 10.7 ± 1.4 mL/min/kg, the maximum concentration (Cmax) was 162.0 ± 9.0 µg/mL and the “Plasma Half-life” value is 20.4 ± 2.4 min. The distribution volume (Vss) in series [1] (setting [4]) is 0.3093 ± 0.0172 L/kg. In addition, the Vss in series [1] (intravenous bolus 50 mg/kg vancomycin equivalents, plasma, listed as Vancomycin) stood at 0.309 L/kg. In addition, in the series on S. aureus (Smith) (100 mg/kg vancomycin equivalents given before challenge, ICR Swiss mice), the “anti-microbial protection against later S. aureus challenge (in words)” value is recorded as “no protection”. Further, the “Pre-Challenge % Survival (mice)” value with S. aureus (Smith) (100 mg/kg vancomycin equivalents in two split doses 1½ h apart, given prior to LD90-100 S. aureus (Smith) challenge, survival after 1 week) amounted to 0%. In series [2], the “Post Challenge % Survival (mice)” value is on record as 100%. For the same substance, the “MIC E. faecalis (29212)” value with E. faecalis (29212) was 6.2 µg/mL. In addition, in the series with E.coli (25922), the “MIC E.coli (25922)” value was more than 100 µg/mL. For the same substance, the “MIC S. aureus (6538P)” value in the series on S. aureus (6538P) turned out to be 1.6 µg/mL. Also, in the series with S. aureus (29214), the “MIC S. aureus (29214)” value was 3.1 µg/mL.
